This is an account of results in patent publication US20110046227A1, “METHODS FOR CONCOMITANT ADMINISTRATION OF […] A SECOND ACTIVE AGENT” (MUTUAL PHARMACEUTICAL COMPANY, INC., priority 2009, published 2011).

Like-named read-outs stand apart in the source and are kept apart here. Bounds are passed on as bounds.

As usually defined, the Tmax is the time from dosing to the highest level. For orientation: Cmax means the maximum level reached in the sampled fluid or tissue.

A short description of this series: Pharmacokinetic study in healthy adults of single vs. multiple oral doses of colchicine tablets (Example 1).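 For all read-outs here: Single-dose and multiple-dose periods given to the same subjects, with a 14-day washout between the two periods.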 The class given is in vivo, human. Conditions: for Vd/F / half-life / Tmax / AUC(0-inf) / AUC(0-t) / AUC / Cmax: human, plasma, 0.6 mg; for Vd/F: Vd = CL/Ke, calculated from mean values, read-out: Vd/F, Mean (% CV).
Setting [1] is: multiple (b.i.d.) oral doses colchicine 0.6 mg for 10 days, Day 25, healthy adults N=13, plasma, median.

Method: Subjects received a light breakfast served 60 minutes following dose administration in the morning and the evening dose was administered 90 minutes after an evening meal on Days 15 through 24 only. […] Study periods were separated by a 14-day washout. Following the single dose and the last dose of the multiple dose regimen (beginning on the mornings of Day 1 and Day 25, respectively), blood samples were collected (6 mL each) from each subject within 1 hour prior to dosing and after dose administration at study hours 0.5, 1, 1.5, 2, 3, 4, 6, 8, 10, 12, and 24 (while confined) and 36, 48, 72, and 96 (on an outpatient basis).
All subjects completed both dosing periods according to protocol.
In tables, the parameter CL/F denotes the apparent total body clearance after administration, calculated as Total Dose/Total AUC0-tau; and Vd/F denotes the apparent total volume of distribution after administration, calculated as Total Dose/(Total AUC∞×Kel).
Pharmacokinetic parameters referred to herein describe the in vivo characteristics of drug (or a metabolite or a surrogate marker for the drug) over time. These include plasma concentration (C), as well as Cmax, Cn, C24, Tmax, and AUC. “Cmax” is the measured plasma concentration of the active agent at the point of maximum, or peak, concentration. “Cmin” is the measured plasma concentration of the active agent at the point of minimum concentration. “Cn” is the measured plasma concentration of the active agent at about n hours after administration. […] The term “Tmax” refers to the time from drug administration until Cmax is reached. “AUC” is the area under the curve of a graph of the measured plasma concentration of an active agent vs. time, measured from one time point to another time point. […] Time t can be the last time point with measurable plasma concentration for an individual formulation. The AUC0-∞, AUC∞ or AUC0-inf is the calculated area under the curve of plasma concentration versus time from time 0 to time infinity.

As for `COc1cc2c(c(OC)c1O)-c1ccc(OC)c(=O)cc1[C@@H](NC(C)=O)CC2` [2-O-demethylcolchicine], the metabolite plasma concentration (after colchicine 0.6 mg single and multiple doses, LOQ 0.2 ng/mL, 13 subjects) was less than 0.2 ng/mL.
In the case of `COc1cc2c(c(OC)c1OC)-c1ccc(OC)c(=O)cc1[C@@H](NC(C)=O)CC2` [Colchicine, (−)-N-[(7S,12aS)-1,2,3,10-tetramethoxy-9-oxo-5,6,7,9-tetrahydrobenzo[a]heptalen-7-yl]-acetamide], where the note is “0.6 mg b.i.d., most subjects”, the “attainment of steady state (trough plasma concentrations)” value was “by approximately the eighth day of dosing”. In addition, where the note is “calculated following a single oral dose, stated not to be an accurate estimate”, the elimination half-life entry is reported as “approximately 5 hours”. The secondary colchicine peak entry (following a single dose or upon multiple dosing, individual subject data) was “no subject experienced a secondary colchicine peak”. Besides, where the note is “healthy adults, oral, single dose”, the “apparent volume of distribution” value stood at 540 L. The Vd/F is, setting by setting: (oral, colchicine 0.6 mg b.i.d. × 10 days, Day 25) 1150 L; (oral, colchicine 0.6-mg single dose, Day 1, N=13) 341 L. In addition, the half-life (oral, repeated dosing 0.6 mg b.i.d., read-out: terminal elimination half life (converted)) was 26.6 h; the half-life (po, multiple (b.i.d.) oral doses colchicine 0.6 mg for 10 days, Day 25, healthy adults N=13, mean, read-out: T1/2, MEAN (converted)) was 26.6 h; the half-life (po, multiple (b.i.d.) oral doses colchicine 0.6 mg for 10 days, Day 25, healthy adults N=13, median, read-out: T1/2, MEDIAN (converted)) is 26.5 h; the half-life (po, single oral dose colchicine 0.6 mg, healthy adults N=13, mean, read-out: T1/2, MEAN (converted)) is 4.95 h; the half-life (po, single oral dose colchicine 0.6 mg, healthy adults N=13, median, read-out: T1/2, MEDIAN (converted)) was 3.48 h. Further, the Tmax came out at 1.31 h (po, multiple (b.i.d.) oral doses colchicine 0.6 mg for 10 days, Day 25, healthy adults N=13, mean, read-out: Tmax, MEAN); 1 h (po, multiple (b.i.d.) oral doses colchicine 0.6 mg for 10 days, Day 25, healthy adults N=13, median, read-out: Tmax, MEDIAN); 1.5 h (po, single oral dose colchicine 0.6 mg, healthy adults N=13, median, read-out: Tmax, MEDIAN). Also, the AUC(0-inf) turned out to be 54.2 ng·h/mL (po, multiple (b.i.d.) oral doses colchicine 0.6 mg for 10 days, Day 25, healthy adults N=13, plasma, mean, read-out: AUC0-inf, MEAN); 54.1 ng·h/mL (po, multiple (b.i.d.) oral doses colchicine 0.6 mg for 10 days, Day 25, healthy adults N=13, plasma, median, read-out: AUC0-inf, MEDIAN); 12.3 ng·h/mL (po, single oral dose colchicine 0.6 mg, healthy adults N=13, plasma, mean, read-out: AUC0-inf, MEAN); 11.5 ng·h/mL (po, single oral dose colchicine 0.6 mg, healthy adults N=13, plasma, median, read-out: AUC0-inf, MEDIAN). Moreover, the AUC(0-t) came to 43.6 ng·h/mL (po, multiple (b.i.d.) oral doses colchicine 0.6 mg for 10 days, Day 25, healthy adults N=13, plasma, mean, read-out: AUC0-t, MEAN); 41.9 ng·h/mL (po, multiple (b.i.d.) oral doses colchicine 0.6 mg for 10 days, Day 25, healthy adults N=13, plasma, median, read-out: AUC0-t, MEDIAN); 10.5 ng·h/mL (po, single oral dose colchicine 0.6 mg, healthy adults N=13, plasma, mean, read-out: AUC0-t, MEAN); 10.6 ng·h/mL (po, single oral dose colchicine 0.6 mg, healthy adults N=13, plasma, median, read-out: AUC0-t, MEDIAN). Further, the AUC worked out at 20.4 ng·h/mL (po, multiple (b.i.d.) oral doses colchicine 0.6 mg for 10 days, Day 25, healthy adults N=13, plasma, mean, read-out: AUC0-τ, MEAN) and 20.4 ng·h/mL (po, multiple (b.i.d.) oral doses colchicine 0.6 mg for 10 days, Day 25, healthy adults N=13, plasma, median, read-out: AUC0-τ, MEDIAN). Also, the Cmax (po, multiple (b.i.d.) oral doses colchicine 0.6 mg for 10 days, Day 25, healthy adults N=13, plasma, mean, read-out: Cmax, MEAN) turned out to be 3.55 ng/mL; the Cmax (po, multiple (b.i.d.) oral doses colchicine 0.6 mg for 10 days, Day 25, healthy adults N=13, plasma, median, read-out: Cmax, MEDIAN) was determined as 3.73 ng/mL; the Cmax (po, single oral dose colchicine 0.6 mg, healthy adults N=13, plasma, mean, read-out: Cmax, MEAN) was 2.45 ng/mL; the Cmax (po, single oral dose colchicine 0.6 mg, healthy adults N=13, plasma, median, read-out: Cmax, MEDIAN) amounted to 2.48 ng/mL. Further, the “Kel, MEAN” value (multiple (b.i.d.) oral doses colchicine 0.6 mg for 10 days, Day 25, healthy adults N=13, mean) turned out to be 0.0267 h⁻¹ and the “Kel, MEAN” value (single oral dose colchicine 0.6 mg, healthy adults N=13, mean) is 0.1829 h⁻¹. The “Kel, MEDIAN” value was 0.0261 h⁻¹ (multiple (b.i.d.) oral doses colchicine 0.6 mg for 10 days, Day 25, healthy adults N=13, median) and 0.1992 h⁻¹ (single oral dose colchicine 0.6 mg, healthy adults N=13, median). In addition, the “Cave, MEAN” value (multiple (b.i.d.) oral doses colchicine 0.6 mg for 10 days, Day 25, healthy adults N=13, plasma, mean) turned out to be 1.69722 ng/mL. The “Cave, MEDIAN” value under setting [1] is 1.70192 ng/mL. Moreover, under setting [1], the “Cmin, MEDIAN” value was found to be 0.9035 ng/mL. For the setting “observed on Day 25, 0.6 mg b.i.d. steady state regimen”, the “mean Cmin concentration” value was 0.907 ng/mL. The “plasma concentrations quantifiable after a single dose” value (single dose 0.6 mg, 24 hours post-dose) is reported as “no longer quantifiable 24 hours post-dose in all but 1 subject”. Further, for the setting “steady state, Day 23 and Day 24”, the “Cmin prior to the morning dose higher than Cmin prior to the evening dose” value was “approximately 12%”.
